Results reported in patent US9695133B2, “Quinazolinone-based oncogenic-RAS-selective lethal compounds and their use” (THE TRUSTEES OF COLUMBIA UNIVERSITY IN THE CITY OF NEW YORK, priority 2012, dated 2017).

System: HT-1080 cells
Test: Metabolite profiling (LC-MS/MS) upon erastin treatment
Assay type: cell-based, human
Settings: 5 μg/mL erastin 5 h
Description: 2 million HT-1080 cells were seeded in 10 cm culture dishes. […] 4 mL of cold 80% methanol was added to the cell monolayer to extract polar metabolites using a cell scraper. The cell lysate/methanol mixture was transferred to a 15 mL tube and centrifuged at 2,000×g at 4° C. for 10 minutes to pellet debris and proteins. The supernatant was transferred to a new tube and stored at −80° C. for liquid chromatography-mass spectrometry/mass spectrometry (LC-MS/MS) analysis. For lipid extract preparation, 3 mL of cold 100% isopropanol was added to the cell monolayer to scrape out cells. The resulting cell lysate/isopropanol mixture was transferred to a new 15 mL tube and centrifuged at 2,000×g at 4° C. for 10 minutes. The cleared supernatant was transferred to a new tube and stored at −20° C. for LC-MS/MS analysis.
The metabolite extract was subjected to LC-MS/MS analysis to determine the quantity of each metabolite in each sample.

CCOc1ccccc1-n1c(C(C)N2CCN(C(=O)COc3ccc(Cl)cc3)CC2)nc2ccccc2c1=O (stereo not drawn) [erastin]
guanosine Erastin/DMSO: 4.51
guanosine log2 (Erastin/DMSO): 2.173
hippurate Erastin/DMSO: 1.005
hippurate log2 (Erastin/DMSO): 0.007657
histamine Erastin/DMSO: 0.9526
histamine log2 (Erastin/DMSO): −0.07002
histidine Erastin/DMSO: 0.9779
histidine log2 (Erastin/DMSO): −0.03228
hydroxyphenylacetate Erastin/DMSO: 1.024
hydroxyphenylacetate log2 (Erastin/DMSO): 0.03431
hypoxanthine Erastin/DMSO: 0.9819
hypoxanthine log2 (Erastin/DMSO): −0.02629
indoxylsulfate Erastin/DMSO: 0.7913
indoxylsulfate log2 (Erastin/DMSO): −0.3377
inosine Erastin/DMSO: 1.867
inosine log2 (Erastin/DMSO): 0.9005
isocitrate Erastin/DMSO: 1.051
isocitrate log2 (Erastin/DMSO): 0.07189
isoleucine Erastin/DMSO: 0.9526
isoleucine log2 (Erastin/DMSO): −0.07
isomer_of_erythrose-4-phosphate Erastin/DMSO: 0.5887
isomer_of_erythrose-4-phosphate log2 (Erastin/DMSO): −0.7644
kynurenic acid Erastin/DMSO: 0.8322
kynurenic acid log2 (Erastin/DMSO): −0.265
kynurenine Erastin/DMSO: 1.04
kynurenine log2 (Erastin/DMSO): 0.05699
lactate Erastin/DMSO: 0.884
lactate log2 (Erastin/DMSO): −0.1779
leucine Erastin/DMSO: 0.9497
leucine log2 (Erastin/DMSO): −0.07444
lysine Erastin/DMSO: 0.9654
lysine log2 (Erastin/DMSO): −0.05081
malate Erastin/DMSO: 1.143
malate log2 (Erastin/DMSO): 0.1934
maleate/3-methyl-2-oxobutanoate Erastin/DMSO: 0.9484
maleate/3-methyl-2-oxobutanoate log2 (Erastin/DMSO): −0.07647
malonate Erastin/DMSO: 1.025
malonate log2 (Erastin/DMSO): 0.03595
methionine Erastin/DMSO: 0.9702
methionine log2 (Erastin/DMSO): −0.04361
niacinamide Erastin/DMSO: 0.9289
niacinamide log2 (Erastin/DMSO): −0.1065
nicotinate Erastin/DMSO: 1.085
nicotinate log2 (Erastin/DMSO): 0.1179
ornithine Erastin/DMSO: 0.9482
ornithine log2 (Erastin/DMSO): −0.07676
orotate Erastin/DMSO: 1.138
orotate log2 (Erastin/DMSO): 0.1864
oxalate Erastin/DMSO: 1.019
oxalate log2 (Erastin/DMSO): 0.02659
pantothenate Erastin/DMSO: 1.194
pantothenate log2 (Erastin/DMSO): 0.2564
phenylacetylglycine Erastin/DMSO: 1.135
phenylacetylglycine log2 (Erastin/DMSO): 0.1828
phenylalanine Erastin/DMSO: 1.005
phenylalanine log2 (Erastin/DMSO): 0.007013
phosphocholine Erastin/DMSO: 0.5252
phosphocholine log2 (Erastin/DMSO): −0.9291
phosphocreatine Erastin/DMSO: 1.173
phosphocreatine log2 (Erastin/DMSO): 0.2302
phosphoglycerate Erastin/DMSO: 0.9848
phosphoglycerate log2 (Erastin/DMSO): −0.02206
phosphotyrosine Erastin/DMSO: 0.6533
phosphotyrosine log2 (Erastin/DMSO): −0.6143
pimelate/3-methyladipate Erastin/DMSO: 1.021
pimelate/3-methyladipate log2 (Erastin/DMSO): 0.03006
proline Erastin/DMSO: 1.086
proline log2 (Erastin/DMSO): 0.1195
proprionate Erastin/DMSO: 1.092
proprionate log2 (Erastin/DMSO): 0.1269
pyruvate Erastin/DMSO: 1.283
pyruvate log2 (Erastin/DMSO): 0.3592
quinolinate Erastin/DMSO: 1.015
quinolinate log2 (Erastin/DMSO): 0.02178
ribose-5-P Erastin/DMSO: 1.113
ribose-5-P log2 (Erastin/DMSO): 0.155
ribulose-5-P Erastin/DMSO: 1.051
ribulose-5-P log2 (Erastin/DMSO): 0.07112
salicylurate Erastin/DMSO: 0.9637
salicylurate log2 (Erastin/DMSO): −0.05339
sebacate Erastin/DMSO: 0.9419
sebacate log2 (Erastin/DMSO): −0.08641
serine Erastin/DMSO: 1.053
serine log2 (Erastin/DMSO): 0.07514
serotonin Erastin/DMSO: 0.7924
serotonin log2 (Erastin/DMSO): −0.3357
sorbitol Erastin/DMSO: 0.9709
sorbitol log2 (Erastin/DMSO): −0.04258
suberate Erastin/DMSO: 1.003
suberate log2 (Erastin/DMSO): 0.004641
succinate/methylmalonate Erastin/DMSO: 1.008
succinate/methylmalonate log2 (Erastin/DMSO): 0.01178
sucrose Erastin/DMSO: 1.408
sucrose log2 (Erastin/DMSO): 0.4939
taurine Erastin/DMSO: 0.8259
taurine log2 (Erastin/DMSO): −0.276
taurochenodeoxycholate Erastin/DMSO: 1.181
taurochenodeoxycholate log2 (Erastin/DMSO): 0.2399
taurocholate Erastin/DMSO: 1.108
taurocholate log2 (Erastin/DMSO): 0.1484
taurodeoxycholate Erastin/DMSO: 1.168
taurodeoxycholate log2 (Erastin/DMSO): 0.2237
taurolithocholate Erastin/DMSO: 1.093
taurolithocholate log2 (Erastin/DMSO): 0.1287
thiamine Erastin/DMSO: 0.9385
thiamine log2 (Erastin/DMSO): −0.09157
threonine Erastin/DMSO: 0.9924
threonine log2 (Erastin/DMSO): −0.01095
thymidine Erastin/DMSO: 1.402
thymidine log2 (Erastin/DMSO): 0.4879
thymine Erastin/DMSO: 1.257
thymine log2 (Erastin/DMSO): 0.3302
thyroxine Erastin/DMSO: 0.8859
thyroxine log2 (Erastin/DMSO): −0.1748
triiodothyronine Erastin/DMSO: 0.8066
triiodothyronine log2 (Erastin/DMSO): −0.31
trimethylamine-N-oxide Erastin/DMSO: 1.222
trimethylamine-N-oxide log2 (Erastin/DMSO): 0.2895
tryptophan Erastin/DMSO: 0.9911
tryptophan log2 (Erastin/DMSO): −0.01285
tyrosine Erastin/DMSO: 0.9821
tyrosine log2 (Erastin/DMSO): −0.02607
urate Erastin/DMSO: 1.018
urate log2 (Erastin/DMSO): 0.0257
uridine Erastin/DMSO: 4.369
uridine log2 (Erastin/DMSO): 2.127
valine Erastin/DMSO: 0.9822
valine log2 (Erastin/DMSO): −0.02594
xanthine Erastin/DMSO: 1.027
xanthine log2 (Erastin/DMSO): 0.03817
xanthosine Erastin/DMSO: 0.98
xanthosine log2 (Erastin/DMSO): −0.02909
